Experiments:
OCILy10 = test: CellTiter-Glo viability, 72 hours; format: cell-based; settings: Homo sapiens, OCI-Ly10, OCILy10, ABC-DLBCL
Method: (§1) Two ABC-DLBCL (OCILy10 and TMD8) cell lines and one GCB-DLBCL (Karpas422) cell line were treated with either vehicle (DMSO) or a 10-point, ½ log serially dilution of acalabrutinib for 72 hours with a CellTiter-Glo viability readout.

TMD8 = test: CellTiter-Glo viability, 72 hours; format: cell-based; settings: Homo sapiens, TMD8, ABC-DLBCL
Method: as §1

Karpas422 = test: CellTiter-Glo viability, 72 hours; format: cell-based; settings: Homo sapiens, KARPAS-422, Karpas422, GCB-DLBCL
Method: as §1

OCILy10 tumor cells = test: OCILy10 subcutaneous tumor model, efficacy study; format: in vivo, C.B.-17 SCID female mice; settings: OCILy10 s.c. in C.B.-17 SCID mice; acalabrutinib 12.5 mg/kg po bid; AZD5991 IV once weekly
Method: 5×10^6 OCILy10 tumor cells were injected subcutaneously in the right flank of C.B.-17 SCID female mice in a volume of 0.1 mL containing 50% matrigel. Tumor volumes (measured by caliper), animal body weight, and tumor condition were recorded twice weekly for the duration of the studies. The tumor volume was calculated using the formula: length (mm)×width (mm)^2×0.52. For efficacy studies, growth inhibition from the start of treatment was assessed by comparison of the differences in tumor volume between control and treated groups. Dosing began when mean tumor size reached approximately 150-180 mm^3. CR=complete response. AZD5991 was formulated in 30% HPBCD (hydroxypropyl beta-cyclodextrin) in water for injection and adjusted to pH 9.0 up to a concentration of 30 mg/mL. AZD5991 was dosed IV once weekly. Acalabrutinib was formulated in 0.5% hydroxypropyl methyl cellulose/0.2% Tween 80, and dosed twice a day (bid) on an 8/16 hr split as an oral (po) administration at a volume of 10 mL/kg at a dose of 12.5 mg/kg.

Bim and Bmf = test: Western blot of BH3-only protein levels in DLBCL cell lines; format: cell-based; settings: 100 nM for 24 hours; OCILy10 and TMD8 relative to the insensitive cell line Karpas422
Method: OCILy10, TMD8, and Karpas422 were treated with either vehicle or 100 nM acalabrutinib for 2-72 hours. Protein lysates were harvested at multiple time points in that interval, protein concentration was determined using the BCA Protein Assay Kit, and western blots were performed according to standard protocol to assess the effects on Bcl2 family protein levels. Each sample was normalized to vinculin as a loading control, and then protein levels of acalabrutinib-treated samples were calculated relative to those of vehicle-treated samples.
Each of the three cell lines were then treated with 100 nM acalabrutinib for 24 hours, and BH3-only protein levels were assessed. The levels of pro-apoptotic BH3-only proteins Bim and Bmf were increased in the two acalabrutinib-sensitive DLBCL cell lines relative to the insensitive cell line, priming the cells for apoptosis (FIG. 1). Acalabrutinib increases protein levels of pro-apoptotic proteins, including Bim and Bmf, in BTK inhibitor-sensitive DLBCL cell lines that leads to priming of cells for apoptosis. The results of Example 1 illustrate that diffuse large B-cell […] (DLBCL) cell lines display a differential sensitivity to acalabrutinib.

cleaved caspase-3 = test: Western blot time course of cleaved caspase-3 in OCILy10 and TMD8; format: cell-based; settings: 1 μM AZD5991 for 8 hr, alone or after 24-hour pre-treatment with 100 nM acalabrutinib
Method: Two BTK inhibitor-sensitive ABC-DLBCL cell lines (OCILy10 and TMD8) were treated for an 8-hour time course with either 1 μM AZD5991 alone or following a 24-hour pre-treatment with 100 nM acalabrutinib (since exposure for 24 hours was sufficient to induce maximal BH3-only protein levels). Cells were harvested for protein lysates at varying time points (0, 0.5, 1, 2, 4, and 8 hours) post-AZD5991 treatment, normalized for protein concentration using the BCA Protein Assay Kit, and run for western blots according to standard protocols. To ensure expected target engagement of acalabrutinib, the blots were probed for the proximal biomarker for activated BTK (pBTK Y223). To gauge the time to induction of apoptosis, cleaved caspase-3 was also assessed. A loading control (vinculin) was also utilized for normalization.

GI50 (Karpas422)	SMILES	GI50 (OCILy10)	GI50 (TMD8)	tumor growth inhibition (OCILy10 tumor cells)	levels of pro-apoptotic BH3-only proteins Bim and Bmf (Bim and Bmf)	induction of cleaved caspase (cleaved caspase-3)
> 31000 nM	CC#CC(=O)N1CCC[C@H]1c1nc(-c2ccc(C(=O)Nc3ccccn3)cc2)c2c(N)nccn12 [acalabrutinib, (S)-4-(8-amino-3-(1-but-2-ynoylpyrrolidin-2-yl)imidazo[1,5-a]pyrazin-1-yl)-N-(pyridin-2-yl)benzamide]	10 nM	60 nM	79%	increased	
	Cc1c2c(nn1C)CSCc1cc(n(C)n1)CSc1cc(c3ccccc3c1)OCCCc1c(C(=O)O)n(C)c3c-2c(Cl)ccc13 (atropisomer, axis not shown; (Ra)) [AZD5991, (Ra)-17-chloro-5,13,14,22-tetramethyl-28-oxa-2,9-dithia-5,6,12,13,22-pentaazaheptacyclo[27.7.1.1^4,7.0^11,15.0^16,21.0^20,24.0^30,35]octatriaconta-1(37),4(38),6,11,14,16,18,20,23,29,31,33,35-tridecaene-23-carboxylic acid]			44%		no positive caspase activation
